Like-named read-outs stand apart in the source and are kept apart here.
Key:
Assay in all cases: radioligand binding assay
[1] = biological target: T1, human recombinant vasopressin V1a receptor (Homo sapiens, UniProt P37288); settings: read-out: Bingding Assy (IC50; nmol/mL) / V1a
T1 construct: gene AVPR1A; full-length recombinant receptor in 1321N1 host cells (PerkinElmer)
Description: (§1) radioligand binding assay on human recombinant vasopressin V1a receptor

[2] = biological target: T2, human recombinant vasopressin V2 receptor (Homo sapiens, UniProt P30518); assay type: cell-based; settings: read-out: Bingding Assy (IC50; nmol/mL) / V2
T2 construct: gene AVPR2; full-length recombinant receptor in 1321N1 host cells (PerkinElmer)
T2 sequence (P30518 whole entry): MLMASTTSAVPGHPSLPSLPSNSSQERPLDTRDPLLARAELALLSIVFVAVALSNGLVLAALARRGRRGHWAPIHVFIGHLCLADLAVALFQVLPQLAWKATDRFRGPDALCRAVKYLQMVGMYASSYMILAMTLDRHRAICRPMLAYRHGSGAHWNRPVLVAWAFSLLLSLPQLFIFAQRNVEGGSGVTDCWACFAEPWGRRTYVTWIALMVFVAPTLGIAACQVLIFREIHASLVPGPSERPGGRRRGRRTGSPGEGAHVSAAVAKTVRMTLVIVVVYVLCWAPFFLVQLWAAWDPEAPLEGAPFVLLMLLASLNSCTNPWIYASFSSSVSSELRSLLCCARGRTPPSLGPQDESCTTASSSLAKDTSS
Description: (§2) radioligand binding assay on human recombinant vasopressin V2 receptor

[3] = biological target: T1, human recombinant vasopressin V1a receptor; assay type: cell-based; settings: read-out: Bingding Assy (IC50; nmol/mL) / V1a
Description: as §1

[4] = biological target: T2, human recombinant vasopressin V2 receptor; settings: read-out: Bingding Assy (IC50; nmol/mL) / V2
Description: as §2

T1 sequence (P37288 whole entry): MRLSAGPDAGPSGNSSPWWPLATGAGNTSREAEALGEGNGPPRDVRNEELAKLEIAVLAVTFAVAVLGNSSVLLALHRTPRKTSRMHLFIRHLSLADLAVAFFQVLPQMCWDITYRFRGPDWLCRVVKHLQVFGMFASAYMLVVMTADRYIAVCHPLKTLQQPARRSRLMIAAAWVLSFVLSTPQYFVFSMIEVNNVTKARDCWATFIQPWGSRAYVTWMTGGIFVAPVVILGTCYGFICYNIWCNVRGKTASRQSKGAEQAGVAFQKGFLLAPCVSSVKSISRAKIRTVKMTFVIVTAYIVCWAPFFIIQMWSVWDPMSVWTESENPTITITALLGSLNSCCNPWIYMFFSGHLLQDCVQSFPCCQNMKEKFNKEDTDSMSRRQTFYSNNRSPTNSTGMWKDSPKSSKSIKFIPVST

SMILES | IC50 [1] | IC50 [2] | IC50 [3] | IC50 [4]
O=C(CCCCl)Nc1ccc(C(=O)N2CCC(=C3c4ccc(Cl)cc4CCc4cccnc43)CC2)cc1 [1c, 4-Chloro-N-(4-(4-(8-chloro-5H-benzo[5,6]cyclohepta[1,2-b]pyridin-11(6H)-ylidene)piperidine-1-carbonyl)phenyl)butanamide] | > 1000 nmol/mL | 25 nmol/mL | – | –
CCS(=O)(=O)Nc1ccc(C(=O)N2CCC(=C3c4ccc(Cl)cc4CCc4cccnc43)CC2)cc1 [1d, N-(4-(4-(8-Chloro-5H-benzo[5,6]cyclohepta[1,2-b]pyridin-11(6H)-ylidene)piperidine-1-carbonyl)phenyl)ethanesulfonamide] | 92 nmol/mL | – | – | –
CCCC(=O)Nc1cccc(S(=O)(=O)N2CCC(=C3c4ccc(Cl)cc4CCc4cccnc43)CC2)c1 [1e, N-(3-((4-(8-Chloro-5H-benzo[5,6]cyclohepta[1,2-b]pyridin-11(6H)-ylidene)piperidin-1-yl)sulfonyl)phenyl)butyramide] | 176 nmol/mL | 26 nmol/mL | – | –
CCCC(=O)Nc1ccc(S(=O)(=O)N2CCC(=C3c4ccc(Cl)cc4CCc4cccnc43)CC2)cc1 [1f, N-(4-((4-(8-Chloro-5H-benzo[5,6]cyclohepta[1,2-b]pyridin-11(6H)-ylidene)piperidin-1-yl)sulfonyl)phenyl)butyramide] | 480 nmol/mL | 40 nmol/mL | – | –
O=C(Nc1ccc(C(=O)N2CCC(=C3c4ccc(Cl)cc4CCc4cccnc43)CC2)cc1)c1ccccc1 [1g, N-(4-(4-(8-Chloro-5H-benzo[5,6]cyclohepta[1,2-b]pyridin-11(6H)-ylidene)piperidine-1-carbonyl)phenyl)benzamide] | 330 nmol/mL | 19 nmol/mL | – | –
Cc1ccccc1C(=O)Nc1ccc(C(=O)N2CCC(=C3c4ccc(Cl)cc4CCc4cccnc43)CC2)cc1 [1h] | – | 23 nmol/mL | 210 nmol/mL | –
Cc1cccc(C(=O)Nc2ccc(C(=O)N3CCC(=C4c5ccc(Cl)cc5CCc5cccnc54)CC3)cc2)c1 [1j, N-(4-(4-(8-Chloro-5H-benzo[5,6]cyclohepta[1,2-b]pyridin-11(6H)-ylidene)piperidine-1-carbonyl)phenyl)-3-methylbenzamide] | – | – | 370 nmol/mL | –
O=C(Nc1ccc(C(=O)N2CCC(=C3c4ccc(Cl)cc4CCc4cccnc43)CC2)cc1)c1cccc(Cl)c1 [1l, 3-Chloro-N-(4-(4-(8-chloro-5H-benzo[5,6]cyclohepta[1,2-b]pyridin-11(6H)-ylidene)piperidine-1-carbonyl)phenyl)benzamide] | – | 16 nmol/mL | 560 nmol/mL | –
O=C(Nc1ccc(C(=O)N2CCC(=C3c4ccc(Cl)cc4CCc4cccnc43)CC2)cc1)c1ccccc1F [1m, N-(4-(4-(8-Chloro-5H-benzo[5,6]cyclohepta[1,2-b]pyridin-11(6H)-ylidene)piperidine-1-carbonyl)phenyl)-2-fluorobenzamide] | – | 20 nmol/mL | 170 nmol/mL | –
COc1cccc(C(=O)Nc2ccc(C(=O)N3CCC(=C4c5ccc(Cl)cc5CCc5cccnc54)CC3)cc2)c1 [1n, N-(4-(4-(8-Chloro-5H-benzo[5,6]cyclohepta[1,2-b]pyridin-11(6H)-ylidene)piperidine-1-carbonyl)phenyl)-3-methoxybenzamide] | – | – | 390 nmol/mL | –
O=C(Nc1ccc(C(=O)N2CCC(=C3c4ccc(Cl)cc4CCc4cccnc43)CC2)cc1)c1ccc([N+](=O)[O-])cc1 [1p, N-(4-(4-(8-Chloro-5H-benzo[5,6]cyclohepta[1,2-b]pyridin-11(6H)-ylidene)piperidine-1-carbonyl)phenyl)-4-nitrobenzamide] | – | 52 nmol/mL | > 1000 nmol/mL | –
Cc1ccc(S(=O)(=O)Nc2ccc(C(=O)N3CCC(=C4c5ccc(Cl)cc5CCc5cccnc54)CC3)cc2)cc1 [1q, N-(4-(4-(8-Chloro-5H-benzo[5,6]cyclohepta[1,2-b]pyridin-11(6H)-ylidene)piperidine-1-carbonyl)phenyl)-4-methylbenzenesulfonamide] | – | 24 nmol/mL | 720 nmol/mL | –
O=C(c1ccc(NS(=O)(=O)c2ccccc2Cl)cc1)N1CCC(=C2c3ccc(Cl)cc3CCc3cccnc32)CC1 [1r, 2-Chloro-N-(4-(4-(8-chloro-5H-benzo[5,6]cyclohepta[1,2-b]pyridin-11(6H)-ylidene)piperidine-1-carbonyl)phenyl)benzenesulfonamide] | – | – | 830 nmol/mL | –
O=C(c1ccc(NS(=O)(=O)c2cc(Cl)ccc2Cl)cc1)N1CCC(=C2c3ccc(Cl)cc3CCc3cccnc32)CC1 [1s, 2,5-Dichloro-N-(4-(4-(8-chloro-5H-benzo[5,6]cyclohepta[1,2-b]pyridin-11(6H)-ylidene)piperidine-1-carbonyl)phenyl)benzenesulfonamide] | – | – | 320 nmol/mL | –
O=C(Nc1cccc(S(=O)(=O)N2CCC(=C3c4ccc(Cl)cc4CCc4cccnc43)CC2)c1)c1cccc(Cl)c1 [1u, 3-Chloro-N-(3-((4-(8-chloro-5H-benzo[5,6]cyclohepta[1,2-b]pyridin-11(6H)-ylidene)piperidin-1-yl)-sulfonyl)phenyl)benzamide] | – | – | 840 nmol/mL | 19 nmol/mL
Cc1ccc(S(=O)(=O)Nc2cccc(S(=O)(=O)N3CCC(=C4c5ccc(Cl)cc5CCc5cccnc54)CC3)c2)cc1 [1w, N-(3-((4-(8-Chloro-5H-benzo[5,6]cyclohepta[1,2-b]pyridin-11(6H)-ylidene)piperidin-1-yl)sulfonyl)phenyl)-4-methylbenzenesulfonamide] | – | – | 860 nmol/mL | 30 nmol/mL

Now from value to compound:

IC50 [1] | IC50 [2] | IC50 [3] | IC50 [4] | SMILES
130 nmol/mL | – | – | – | CCC(=O)Nc1ccc(C(=O)N2CCC(=C3c4ccc(Cl)cc4CCc4cccnc43)CC2)cc1 [1a]
> 1000 nmol/mL | 47 nmol/mL | – | – | CCCC(=O)Nc1ccc(C(=O)N2CCC(=C3c4ccc(Cl)cc4CCc4cccnc43)CC2)cc1 [1b]
– | 18 nmol/mL | 220 nmol/mL | – | Cc1ccc(C(=O)Nc2ccc(C(=O)N3CCC(=C4c5ccc(Cl)cc5CCc5cccnc54)CC3)cc2)cc1 [1i]
– | 27 nmol/mL | 490 nmol/mL | – | O=C(Nc1ccc(C(=O)N2CCC(=C3c4ccc(Cl)cc4CCc4cccnc43)CC2)cc1)c1ccccc1Cl [1k, 2-Chloro-N-(4-(4-(8-chloro-5H-benzo[5,6]cyclohepta[1,2-b]pyridin-11(6H)-ylidene)piperidine-1-carbonyl)phenyl)benzamide]
– | 18 nmol/mL | 550 nmol/mL | – | O=C(Nc1ccc(C(=O)N2CCC(=C3c4ccc(Cl)cc4CCc4cccnc43)CC2)cc1)c1cccc([N+](=O)[O-])c1 [1o, N-(4-(4-(8-Chloro-5H-benzo[5,6]cyclohepta[1,2-b]pyridin-11(6H)-ylidene)piperidine-1-carbonyl)phenyl)-3-nitrobenzamide]
– | – | > 1000 nmol/mL | – | O=C(Nc1cccc(S(=O)(=O)N2CCC(=C3c4ccc(Cl)cc4CCc4cccnc43)CC2)c1)c1ccccc1 [1t, N-(3-((4-(8-Chloro-5H-benzo[5,6]cyclohepta[1,2-b]pyridin-11(6H)-ylidene)piperidin-1-yl)sulfonyl)phenyl)benzamide]
– | – | 630 nmol/mL | – | O=C(Nc1cccc(S(=O)(=O)N2CCC(=C3c4ccc(Cl)cc4CCc4cccnc43)CC2)c1)c1cccc([N+](=O)[O-])c1 [1v, N-(3-((4-(8-Chloro-5H-benzo[5,6]cyclohepta[1,2-b]pyridin-11(6H)-ylidene)piperidin-1-yl)sulfonyl)phenyl)-3-nitrobenzamide]
– | – | > 1000 nmol/mL | 310 nmol/mL | O=C(Nc1ccc(S(=O)(=O)N2CCC(=C3c4ccc(Cl)cc4CCc4cccnc43)CC2)cc1)c1cccc(Cl)c1 [1x, 3-Chloro-N-(4-((4-(8-chloro-5H-benzo[5,6]cyclohepta[1,2-b]pyridin-11(6H)-ylidene)piperidin-1-yl)-sulfonyl)phenyl)benzamide]
– | – | 920 nmol/mL | 170 nmol/mL | Cc1ccc(S(=O)(=O)Nc2ccc(S(=O)(=O)N3CCC(=C4c5ccc(Cl)cc5CCc5cccnc54)CC3)cc2)cc1 [1y, N-(4-((4-(8-Chloro-5H-benzo[5,6]cyclohepta[1,2-b]pyridin-11(6H)-ylidene)piperidin-1-yl)sulfonyl)phenyl)-4-methylbenzenesulfonamide]

Reference: publication PMC6271649, “Synthesis and Biological Evaluation of Substituted Desloratadines as Potent Arginine Vasopressin V2 Receptor Antagonists” (Molecules, 2014)
